The source of these data is patent publication US11230555B2, “Bicyclic RORγ modulators” (Escalier Biosciences B.V., priority 2018, dated 2022).

The target in the test is T1, RORγt (Homo sapiens, UniProt P51449).
T1 construct: purchased reporter-cell kit
T1 sequence (P51449 269-508 limits assumed): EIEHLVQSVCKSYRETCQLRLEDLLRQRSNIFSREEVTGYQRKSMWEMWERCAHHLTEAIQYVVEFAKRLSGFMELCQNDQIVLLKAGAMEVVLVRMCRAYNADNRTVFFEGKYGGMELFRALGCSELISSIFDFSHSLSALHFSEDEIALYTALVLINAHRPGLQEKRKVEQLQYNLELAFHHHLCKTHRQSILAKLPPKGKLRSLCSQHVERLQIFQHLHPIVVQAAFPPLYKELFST
Briefly: Gal4 ligand binding assay (RORγt Gal fusion reporter assay). It counts as cell-based. The settings on record: inverse agonists, luciferase reporter, 24h. On the procedure:
Compounds of the present invention were tested in a human RORγ ligand binding assay using a commercially available cell based ligand binding reporter assay in 96-well format (Cat #IB04001, INDIGO Biosciences, State College, Pa.). The N-terminal DNA binding domains (DBD) of the native RORγ and RORγt receptors have been substituted with that of the yeast GAL4-DBD and stably transfected in […] cells that also stably express luciferase under the regulation by upstream activation sequence of yeast Gal4. These cells constitutively express high level RORγ activity due to binding of endogenous co-factors. Both agonist and inverse agonist activity can be detected. The assay was performed according to kit manufacturer's instructions as follows. 10 mM compound stocks were diluted serially 1:3 with DMSO and further diluted with provided media to generate 10 titration points from 60 μM to 3 nM. These treatment conditions were added to the plates as 2× media in 100 μL volume. Each plate includes a positive control with 10 titration points as well as 6negative control wells with vehicle only, with final DMSO concentration of 0.2%. RORγ reporter cells were rapidly thawed and added to the plates in 100 μL volume. The plates were incubated for 24h in a 37° C. humidified 5% CO2incubator. Media was removed before the addition of room temperature luciferous detection substrate. After 5 minute incubation, relative light units (RLUs) were quantified using a plate reading luminometer. Data was normalized to positive control wells with only […]. Before establishing internal controls, ursolic acid was used as control.
Background: In a reporter assay the amount or activity of a reporter protein is the signal.
Turning to `OC(c1ccc(-c2ccc(CN3CC4CCC(C3)N4Cc3ccncc3)cc2)cc1)(C(F)(F)F)C(F)(F)F` [Example 1, 1,1,1,3,3,3-hexafluoro-2-(4′-((8-(pyridin-4-ylmethyl)-3,8-diazabicyclo[3.2.1]octan-3-yl)methyl)-[1,1′-biphenyl]-4-yl)propan-2-ol], the IC50 fell in the range of 50 to 250 nM.

As for `OC(c1ccc(-c2ccc(CN3C4CCC3CN(Cc3ccncc3)C4)cc2)cc1)(C(F)(F)F)C(F)(F)F` [Example 2, 1,1,1,3,3,3-hexafluoro-2-(4′-((3-(pyridin-4-ylmethyl)-3,8-diazabicyclo[3.2.1]octan-8-yl)methyl)-[1,1′-biphenyl]-4-yl)propan-2-ol], the IC50 is > 250 nM.

As to `CCc1cc(CN2CC3CCC(C2)N3S(C)(=O)=O)ncc1-c1ccc(C(O)(C(F)(F)F)C(F)(F)F)cc1C` [Example 3, 2-(4-(4-ethyl-6-((8-(methylsulfonyl)-3,8-diazabicyclo[3.2.1]octan-3-yl)methyl)pyridin-3-yl)-3-methylphenyl)-1,1,1,3,3,3-hexafluoropropan-2-ol], the 50% inhibitory concentration (IC50) lay within 50 to 250 nM.

For `CCc1cc(CN2CC3CCC(C2)N3S(C)(=O)=O)ncc1-c1ccc(C(O)(C(F)(F)F)C(F)(F)F)cc1Cl` [Example 4, 2-(3-chloro-4-(4-ethyl-6-((8-(methylsulfonyl)-3,8-diazabicyclo[3.2.1]octan-3-yl)methyl)pyridin-3-yl)phenyl)-1,1,1,3,3,3-hexafluoropropan-2-ol], the IC50 was in the range of 50 to 250 nM.

Consider `CCc1nc(CN2CC3CCC(C2)N3S(C)(=O)=O)ccc1-c1ccc(C(O)(C(F)(F)F)C(F)(F)F)cc1C` [Example 5, 2-(4-(2-ethyl-6-((8-(methylsulfonyl)-3,8-diazabicyclo[3.2.1]octan-3-yl)methyl)pyridin-3-yl)-3-methylphenyl)-1,1,1,3,3,3-hexafluoropropan-2-ol], for which the concentration for half-maximal inhibition (IC50) was > 250 nM.

For the compound `CCc1cc(CN2C3CCC2CN(S(C)(=O)=O)C3)ccc1-c1ccc(C(O)(C(F)(F)F)C(F)(F)F)cc1` [Example 6, 2-(2′-ethyl-4′-((3-(methylsulfonyl)-3,8-diazabicyclo[3.2.1]octan-8-yl)methyl)-[1,1′-biphenyl]-4-yl)-1,1,1,3,3,3-hexafluoropropan-2-ol], the IC50 lay within 50 to 250 nM.

Consider `CCc1cc(CN2C3CCC2CN(S(C)(=O)=O)C3)ccc1-c1ccc(C(O)(C(F)(F)F)C(F)(F)F)cc1Cl` [Example 7, 2-(2-chloro-2′-ethyl-4′-((3-(methylsulfonyl)-3,8-diazabicyclo[3.2.1]octan-8-yl)methyl)-[1,1′-biphenyl]-4-yl)-1,1,1,3,3,3-hexafluoropropan-2-ol], for which the IC50 was < 50 nM.

On to `CCc1cc(CN2[C@@H]3COC[C@H]2CN(S(C)(=O)=O)C3)ccc1-c1ccc(C(O)(C(F)(F)F)C(F)(F)F)cc1` [Example 8, 2-(2′-ethyl-4′-(((1R,5S)-7-(methylsulfonyl)-3-oxa-7,9-diazabicyclo[3.3.1]nonan-9-yl)methyl)-[1,1′-biphenyl]-4-yl)-1,1,1,3,3,3-hexafluoropropan-2-ol], for which the IC50 was in the range of 50 to 250 nM.

For `CS(=O)(=O)N1C2CCC1CN(c1cccc(-c3ccc(C(O)(C(F)(F)F)C(F)(F)F)cc3)c1)C2` [Example 9, 1,1,1,3,3,3-hexafluoro-2-(3′-(8-(methylsulfonyl)-3,8-diazabicyclo[3.2.1]octan-3-yl)-[1,1′-biphenyl]-4-yl)propan-2-ol], the IC50 was > 250 nM.

As for `CCc1c(-c2ccc(C(O)(C(F)(F)F)C(F)(F)F)cc2Cl)cc(F)c(CN2CC3CCC(C2)N3S(C)(=O)=O)c1F` [Example 10, 2-(2-chloro-2′-ethyl-3′,5′-difluoro-4′-((8-(methylsulfonyl)-3,8-diazabicyclo[3.2.1]octan-3-yl)methyl)-[1,1′-biphenyl]-4-yl)-1,1,1,3,3,3-hexafluoropropan-2-ol], the half-maximal inhibitory concentration (IC50) is < 50 nM.

`CCc1c(F)c(CN2CC3CCC(C2)N3S(C)(=O)=O)cc(F)c1-c1ccc(C(O)(C(F)(F)F)C(F)(F)F)cc1Cl` [Example 11, 2-(2-chloro-2′-ethyl-3′,6′-difluoro-4′-((8-(methylsulfonyl)-3,8-diazabicyclo[3.2.1]octan-3-yl)methyl)-[1,1′-biphenyl]-4-yl)-1,1,1,3,3,3-hexafluoropropan-2-ol]: the IC50 was < 50 nM.

The compound `CCc1cc(CN2CC3COCC(C2)N3S(C)(=O)=O)ccc1-c1ccc(C(O)(C(F)(F)F)C(F)(F)F)cc1` [Example 12, 2-(2′-ethyl-4′-((9-(methylsulfonyl)-3-oxa-7,9-diazabicyclo[3.3.1]nonan-7-yl)methyl)-[1,1′-biphenyl]-4-yl)-1,1,1,3,3,3-hexafluoropropan-2-ol] gave an IC50 of 50 to 250 nM.

As for `CCc1c(-c2ccc(C(O)(C(F)(F)F)C(F)(F)F)cc2F)cc(F)c(CN2CC3CCC(C2)N3S(C)(=O)=O)c1F` [Example 13, 2-(2′-ethyl-2,3′,5′-trifluoro-4′-((8-(methylsulfonyl)-3,8-diazabicyclo[3.2.1]octan-3-yl)methyl)-[1,1′-biphenyl]-4-yl)-1,1,1,3,3,3-hexafluoropropan-2-ol], the IC50 was < 50 nM.

As to `CCc1c(-c2ccc(C(O)(C(F)(F)F)C(F)(F)F)cc2)cc(F)c(CN2CC3CCC(C2)N3S(C)(=O)=O)c1F` [Example 14], the IC50 was < 50 nM.

`CC(C)c1cc(CN2CC3CCC(C2)N3S(C)(=O)=O)c(F)cc1-c1ccc(C(O)(C(F)(F)F)C(F)(F)F)cc1Cl` [Example 15, 2-(2-chloro-5′-fluoro-2′-isopropyl-4′-((8-(methylsulfonyl)-3,8-diazabicyclo[3.2.1]octan-3-yl)methyl)-[1,1′-biphenyl]-4-yl)-1,1,1,3,3,3-hexafluoropropan-2-ol]: the half-inhibitory concentration (IC50) is < 50 nM.

In the case of `CCc1cc(CN2CC3CCC(C2)N3S(C)(=O)=O)cc(F)c1-c1ccc(C(O)(C(F)(F)F)C(F)(F)F)cc1` [Example 16, 2-(2′-ethyl-6′-fluoro-4′-((8-(methylsulfonyl)-3,8-diazabicyclo[3.2.1]octan-3-yl)methyl)-[1,1′-biphenyl]-4-yl)-1,1,1,3,3,3-hexafluoropropan-2-ol], the IC50 is < 50 nM.

`CCc1cc(CN2CC3CCC(C2)N3S(C)(=O)=O)cc(F)c1-c1ccc(C(O)(C(F)(F)F)C(F)(F)F)cc1F` [Example 17, 2-(2′-ethyl-2,6′-difluoro-4′-((8-(methylsulfonyl)-3,8-diazabicyclo[3.2.1]octan-3-yl)methyl)-[1,1′-biphenyl]-4-yl)-1,1,1,3,3,3-hexafluoropropan-2-ol]: the IC50 is < 50 nM.

Consider `CCc1cc(CN2CC3CCC(C2)N3S(C)(=O)=O)cc(F)c1-c1ccc(C(O)(C(F)(F)F)C(F)(F)F)cc1Cl` [Example 18, 2-(2-chloro-2′-ethyl-6′-fluoro-4′-((8-(methylsulfonyl)-3,8-diazabicyclo[3.2.1]octan-3-yl)methyl)-[1,1′-biphenyl]-4-yl)-1,1,1,3,3,3-hexafluoropropan-2-ol], for which the IC50 was < 50 nM.

`CCc1cc(CN2CC3CCC(C2)N3S(C)(=O)=O)c(F)cc1-c1ccc(C(O)(C(F)(F)F)C(F)(F)F)cc1Cl` [Example 19, 2-(2-chloro-2′-ethyl-5′-fluoro-4′-((8-(methylsulfonyl)-3,8-diazabicyclo[3.2.1]octan-3-yl)methyl)-[1,1′-biphenyl]-4-yl)-1,1,1,3,3,3-hexafluoropropan-2-ol]: the IC50 is < 50 nM.

As to `Cc1cc(C(O)(C(F)(F)F)C(F)(F)F)ccc1-c1cc(F)c(CN2CC3CCC(C2)N3S(C)(=O)=O)cc1C(C)C` [Example 20, 1,1,1,3,3,3-hexafluoro-2-(5′-fluoro-2′-isopropyl-2-methyl-4′-((8-(methylsulfonyl)-3,8-diazabicyclo[3.2.1]octan-3-yl)methyl)-[1,1′-biphenyl]-4-yl)propan-2-ol], the IC50 lay in the range of 50 to 250 nM.

`CC(C)c1cc(CN2CC3CCC(C2)N3S(C)(=O)=O)ccc1-c1ccc(C(O)(C(F)(F)F)C(F)(F)F)cc1F` [Example 21] displayed an IC50 of 50 to 250 nM.

In turn, `CC(C)c1cc(CN2CC3CCC(C2)N3S(C)(=O)=O)ccc1-c1ccc(C(O)(C(F)(F)F)C(F)(F)F)cc1Cl` [Example 22, 2-(2-chloro-2′-isopropyl-4′-((8-(methylsulfonyl)-3,8-diazabicyclo[3.2.1]octan-3-yl)methyl)-[1,1′-biphenyl]-4-yl)-1,1,1,3,3,3-hexafluoropropan-2-ol] had an IC50 of 50 to 250 nM.

Regarding `CCc1c(F)c(CN2CC3CCC(C2)N3S(C)(=O)=O)cc(F)c1-c1ccc(C(O)(C(F)(F)F)C(F)(F)F)cc1F` [Example 23, 2-(2′-ethyl-2,3′,6′-trifluoro-4′-((8-(methylsulfonyl)-3,8-diazabicyclo[3.2.1]octan-3-yl)methyl)-[1,1′-biphenyl]-4-yl)-1,1,1,3,3,3-hexafluoropropan-2-ol], the IC50 is < 50 nM.

Regarding `CCc1cc(CN2CC3CCC(C2)N3S(C)(=O)=O)ccc1-c1ccc(C(O)(C(F)(F)F)C(F)(F)F)cc1F` [Example 24, 2-(2′-ethyl-2-fluoro-4′-((8-(methylsulfonyl)-3,8-diazabicyclo[3.2.1]octan-3-yl)methyl)-[1,1′-biphenyl]-4-yl)-1,1,1,3,3,3-hexafluoropropan-2-ol], the 50% inhibitory concentration (IC50) was < 50 nM.

As a reminder, the IC50 is the midpoint of a concentration-inhibition curve. A lower IC50 goes with greater potency.
